These are literature values, as cited in US20200078455A1, “MESOTHELIN VACCINE FOR OVARIAN CANCER PREVENTION” (SRI INTERNATIONAL, priority 2017, published 2020).

For the molecule Oregovomab, the recurrence rate result (compared with women who received a placebo) is reported as “no difference in the recurrence rate”. For the same molecule, for the setting “women with ovarian cancer”, the immune response entry is given as “elicit an immune response”.

B1: Abagovomab (antibody, chains of the INN, looked up, V domains shown)
VH: QVKLQESGAELARPGASVKLSCKASGYTFTNYWMQWVKQRPGQGLDWIGAIYPGDGNTRYTHKFKGKATLTADKSSSTAYMQLSSLASEDSGVYYCARGEGNYAWFAYWGQGTTVTVSS
VL: DIELTQSPASLSASVGETVTITCQASENIYSYLAWHQQKQGKSPQLLVYNAKTLAGGVSSRFSGSGSGTHFSLKIKSLQPEDFGIYYCQHHYGILPTFGGGTKLEIK
notes: ovarian cancer vaccine that has been studied
On to B1, for which, for the setting “women with ovarian cancer”, the immune response entry is recorded as “elicit an immune response” and the survival result is “not clear that this leads to longer survival”.
